Data: patent publication EP1551873B1, “AGONISTS AND ANTAGONISTS OF THE HUMAN ODORANT RECEPTOR OR17-4 AND USES THEREOF” (Symrise AG, priority 2002, dated 2004)
Entries after “also recorded” stand apart in the source; their conditions may differ.

Columns and labels:
[1] = target: T1, hOR17-40 (Homo sapiens, UniProt P47881); test: Ca2+ imaging of HEK293 cells transfected with pOR17-40; type: cell-based
T1 construct: pOR17-40 (Ausschnitt) mit der vollständigen cDNA von hOR17-40; expressed in transfected cells; host or cells: HEK293, plasmid pOR17-40
T1 sequence (P47881 1-315): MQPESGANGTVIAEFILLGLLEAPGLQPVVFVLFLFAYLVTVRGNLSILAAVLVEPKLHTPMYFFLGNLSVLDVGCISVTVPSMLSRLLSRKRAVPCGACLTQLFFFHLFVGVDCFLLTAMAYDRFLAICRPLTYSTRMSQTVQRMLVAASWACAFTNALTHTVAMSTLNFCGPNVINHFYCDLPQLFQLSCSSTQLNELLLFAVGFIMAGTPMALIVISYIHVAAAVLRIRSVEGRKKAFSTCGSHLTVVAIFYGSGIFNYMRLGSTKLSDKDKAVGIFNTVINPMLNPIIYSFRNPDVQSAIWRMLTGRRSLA

[2] = test system: hOR17-4; test: Ca2+ imaging (Fura-2) of HEK293 cells transiently transfected with pOR17-4 (chimeric receptor); type: cell-based, human
Source text: Es wird vermutet, dass die Transmembrandomänen III-VI eine Bindungstasche zum Binden von Agonisten bilden (s. S. Firestein, Nature 413, 211-218 (2001)). Um diese Vermutung für den Rezeptor hOR17-4 zu überprüfen wurde ein für die vermuteten Transmembrandomänen III bis VI codierender Abschnitt der für hOR17-4 codierenden cDNA in einem Shuttle-Expressions-Vektor (pOLF-Express) kloniert. Der Expressionsvektor pOLF-Express umfasst die für die N- und C-terminalen Regionen von hOR17-40 codierenden DNA-Abschnitte (C. H. Wetzel et al., Journal of Neuroscience 19, 7426-7433 (1999)). Das resultierende chimäre Rezeptorprotein sollte die Agonistenspezifität des vollständigen Rezeptors hOR17-4 besitzen.
HEK293-Zellen wurden in MEM (Life Technologies, Gaithersburg, MD), das mit 10 % hitze-inaktiviertem fetalem Kälber-Serum angereichert war, in einem Inkubator bei 37 °C in einer Atmosphäre aus 95 % befeuchteter Luft und 5 % CO2 kultiviert. Semikonfluente Zellen wurden in 35 mm Gefäßen (Falcon) mittels Calciumphosphat-Präzipitation (Zufall et al., PNAS 90 (1993), 9335-9339) unter Verwendung jeweils des Plasmids pOR17-4 bzw. pOR17-4v transfiziert. Die Transfektionseffizienz - typischerweise 10 % - wurde histochemisch mit dem Reporterplasmid pCH110 (Pharmacia, Uppsala, Schweden) überprüft, das für β-Galactosidase codiert. Messungen wurden 48 bis 72 Stunden nach der Transfektion durchgeführt. Die Transfektionseffizienz kann mit einem für GFP, einem grün fluoreszierenden Protein, codierenden Reporterplasmid ebenfalls überprüft werden.
Die Rezeptor-Aktivierung in HEK293-Zellen führt zu einem vorübergehenden Anstieg der cytosolischen Ca^2+-Konzentration, die auf der Einzelzell-Ebene unter Verwendung des Ca^2+-sensitiven Farbstoffes Fura-2 (Fura-2 AM, Molecular Probes Europe BV, Leiden, Niederlande; Ladekonzentration 3-4 µg/ml; Ladezeit ca. 30 min) und ratiofluorometrischen Bildgebungstechniken (Imaging-Experimente) detektiert wurden.
Die Ca^2+-imaging-Experimente wurden auf dem Träger eines invertierten Zeiss-Mikroskopes durchgeführt, das für die ratiofluorometrische Bildgebung mit einer Xenon-Bogenlampe, einem Vielfach-Wellenlängen-Illuminations-System POLYCH-ROM II zur Anregung, einer gekühlten charge-coupled device (CCD)-Kamera und einer WinNT-basierten T.I.L.L.-Vision-Software zum Sammeln und raum- und zeitabhängigen Quantifizieren Ca^2+-abhängiger Fluoreszenz-Signale (F340/F380-Verhältnis) ausgestattet war. HEK293-Zellen wurden mit 32-facher, Spermazellen mit 63-facher Vergrößerung beobachtet.
HEK293- und Spermazellen wurden unter Verwendung eines speziellen Applikations-Systems, das es gestattete, vorübergehend alle Zellen im Blickfeld aus einem von sechs benutzergewählten Kapillarröhrchen zu überspülen, Geruchs- und/oder Wirkstoffen (Testlösungen) ausgesetzt. Der Wechsel zwischen den Testlösungen erfolgte nahezu sofort; auch trat im Wesentlichen keine Wirkungsverzögerung nach dem Wechsel auf, weil die Röhrchenspitzen zum optischen Feld eng benachbart waren. Zwischen den Applikationen von Testlösungen überspülte ein Pufferlösungsstrom kontinuierlich alle Zellen im Gefäß, um jedwede potentielle Hintergrund-Anreicherung von Testlösungen (Geruchs- bzw. Wirkstoffen) zu minimieren. Alle Lösungen wurden bei Raumtemperatur appliziert. Alle verwendeten Geruchsstoffe stammten von Dr. T. Gerke, Henkel KGaA, Düsseldorf, FRG, andere Wirkstoffe wurden von Sigma gekauft. Zur Zusammensetzung der Henkel 100-Mischung vergleiche C. H. Wetzel et al., Journal of Neuroscience 19, 7426-7433 (1999).
Alle auf die potentielle Aktivierung von hOR17-4 untersuchten Geruchsstoffe wurden wenigstens in drei verschiedenen Reihen von Transfektionsexperimenten getestet. […] Geruchsstoffe, die nicht in wenigstens 2 % aller HEK293-Zellen messbare Ca^2+-Konzentrationssteigerung auslösten, wurden nicht zu den hOR17-4-spezifischen Agonisten gezählt, ebenso diejenigen wenigen der untersuchten Komponenten, die ein unspezifisches Ca^2+-Signal in fast jeder Zelle hervorriefen. […]

| inhibitorischer Effekt auf das Helional-induzierte Antwortmuster ([1]; pre-incubation) | Ca^2+-Signale (hOR17-40) [1] | Compound | Zellen, die auf Bourgeonal antworteten, mit vollständig inhibierter Rezeptoraktivierung ([2]; pre-incubation 30 s or longer before Bourgeonal) [von 28] | Einfluss auf die hOR17-4-Rezeptoraktivierung durch Bourgeonal ([2]; single components of Mix D, pre-incubation) | Induktion einer Ca^2+-Konzentrationssteigerung ([2]; agonist concentration reduced to 10^-6 M) | Wirksamkeit (Rangordnung der Agonisten) ([2]; ranking by amplitude normalised to ATP and by responding cells relative to Cyclamal ca. 5 mM) | Rezeptoraktivierung (Ca^2+-Antwort) ([2]; single odorant about 500 µM, pOR17-4-transfected HEK293 cells) |
| --- | --- | --- | --- | --- | --- | --- | --- |
| keinen inhibitorischen Effekt |  | CCCCCCCCCCC=O [n-Undecanal] | 26 | vollständig inhibiert |  |  |  |
|  | keine Ca^2+-Signale | CC(C)(C)c1ccc(CCC=O)cc1 [Bourgeonal] |  |  | deutlich | wirksamere Agonisten; also recorded: der wirksamste getestete Agonist | Fähigkeit der Substanzen, den Rezeptor zu aktivieren |
